Results reported in patent US20240270727A1, “NEW SUBSTITUTED PYRIDINES AS FUNGICIDE” (BASF SE, priority 2021, published 2024).

How the values were obtained:
Leptosphaeria nodorum = experiment: Comparative Example 2: activity against wheat leaf spots caused by Leptosphaeria nodorum (microtiter plate); format: cell-based; conditions: 7 days after inoculation
Septoria tritici = experiment: Comparative Example 1: activity against leaf blotch on wheat caused by Septoria tritici (microtiter plate); format: cell-based; conditions: 7 days after inoculation
Ustilago maydis = experiment: Example 12: activity against Ustilago maydis in the microtiterplate test; conditions: 31 ppm, DOB media pH 7
Description: The stock solutions were mixed according to the ratio, pipetted onto a micro titer plate (MTP) and diluted with water to the stated concentrations. A spore suspension of the Ustilago maydis isolates in a DOB media (ph 7) was then added.

Botrytis cinerea = experiment: Example 1: activity against the grey mold Botrytis cinerea in the microtiterplate test; format: cell-based; conditions: 31 ppm, 7 days after inoculation, relative to active compound-free control (100%)
Fusarium culmorum = experiment: Example 2: activity against Fusarium culmorum in the microtiterplate test; conditions: 31 ppm, 7 days after inoculation, relative to active compound-free control (100%)
Description: The stock solutions were mixed according to the ratio, pipetted onto a micro titer plate (MTP) and diluted with water to the stated concentrations. A spore suspension of Fusarium culmorum in an aqueous biomalt or yeast-bactopeptone-glycerine or DOB solution was then added. The plates were placed in a water vapor-saturated chamber at a temperature of 18° C. Using an absorption photometer, the MTPs were measured at 405 nm 7 days after the inoculation.

Row | SMILES | Growth (%) at 8 pm LEPTNO (Leptosphaeria nodorum) | Growth (%) at 125 pm SEPTTR (Septoria tritici) | growth of the pathogen (Ustilago maydis) | growth of the pathogen (Botrytis cinerea) | growth of the pathogen (Fusarium culmorum)
1 | Cc1cc(C2=NCCOc3ccccc32)cnc1C [D1, reference compound] | 45% | 98% | – | – | –
2 | Cc1cc(C2=NC(C(C)(C)C)COc3ccccc32)cnc1C (stereo not drawn) [Ex-1] | – | – | 0% | 0% | –
3 | Cc1cc(C2=NCC(C)(C)Oc3ccccc32)cnc1C [Ex-2] | 4% | 51% | – | 0% | 1%
4 | Cc1cc(C2=NC(C)(C)C(C)(C)Oc3ccccc32)cnc1C [Ex-3] | 30% | 64% | – | 0% | 1%
5 | Cc1cc(C2=NC(C)(C)C(C)(C)Oc3ccccc32)cnc1C(F)F [Ex-4] | – | – | – | 0% | –
6 | Cc1cc(C2=NCC(C)(C)Oc3ccccc32)cnc1C(F)F [Ex-8] | – | – | – | 0% | –
7 | COCC1(C)Oc2ccccc2C(c2cnc(C)c(C)c2)=NC1(C)C (stereo not drawn) [Ex-9] | – | – | – | 0% | –
8 | COCC1(C)Oc2ccccc2C(c2cnc(C(F)F)c(C)c2)=NC1(C)C (stereo not drawn) [Ex-10] | – | – | – | 0% | –
9 | Cc1cc(C2=NC(C)C(C)(C)Oc3ccccc32)cnc1C (stereo not drawn) [Ex-11] | 6% | 52% | – | 0% | –
10 | Cc1cc(C2=NC(C(C)(C)C)C(C)Oc3ccccc32)cnc1C (stereo not drawn) [Ex-24] | – | – | 0% | – | –
11 | Cc1cc(C2=NC(=O)C3(CC3)Oc3c(F)cccc32)cnc1C(F)F [Ex-41] | – | – | 0% | – | –
